# Measured values taken from patent US20150004617A1, “DNA Polymerase Activity Assays and Methods Enabling Determination of Viable Microbes” (Zeus Scientific, Inc., priority 2012, published 2015).
# Legend:
# [1] = biological target: T1, DNA polymerase I (Escherichia coli, UniProt P00582); test: DPE-PCR assay with purified DNA polymerase, ddCTP termination; format: biochemical; details: dNTP mix with 50 μM ddCTP instead of 50 μM dCTP; 2×10^−9 U DNA polymerase I; 37° C., 20 minutes
# T1 construct: purchased New England Biolabs M0209
# Protocol: DNA Pol I (NEB cat #M0209L), Klenow (NEB cat #M0210S) and Klenow exo(−) (NEB cat #M0212S) were diluted to the indicated U/μL stock in Tris EDTA (T.E.) pH 8.0. To begin, 2 μL of DNA polymerase stock at each concentration were placed into a 50 μL polymerase assay mixture containing the following components: 50 μM dNTP, 20 mM Tris pH 8.0, 10 mM ammonium sulfate, 10 mM potassium chloride, 2 mM magnesium sulfate, 1% BSA, 0.1% Triton, 0.1% Tween, and 0.001 μM pre-annealed DNA substrate. Reactions were vortexed briefly and placed at 37° C. for 20 minutes. After 20 minutes, 3 μL of each reaction were immediately placed into a quantitative PCR (qPCR) reaction. Detection by qPCR
# The qPCR reaction master mix was prepared using the following components: LightCycler 480 Master Mix (Roche cat #04707494001), 333 nM of each primer, 166 nM Target probe (FAM), 166 nM internal control probe (TxRed), and 1.2 U of UDG (Bioline cat #BIO-20744). As a tool to monitor PCR inhibition, each qPCR reaction also included 40 copies of competitive internal control DNA. […]
# [2] = system: E. coli-derived DNA polymerase activity; test: Bead lysis-coupled DPE-PCR, ddCTP termination of microbial DNA polymerase (E. coli); format: biochemical, Escherichia coli; details: reaction mix with 50 μM ddCTP instead of dCTP; crude bead mill lysate
# Protocol: The qPCR reaction master mix was prepared using the following components: LightCycler 480 Master Mix (Roche cat #04707494001), 333 nM of each primer, 166 nM Target probe (FAM), 166 nM internal control probe (TxRed), and 1.2 U of UDG (Bioline cat #BIO-20744). As a tool to monitor PCR inhibition, each qPCR reaction also included 40 copies of competitive internal control DNA. For each qPCR reaction, 3 μL of DNA polymerase reaction were added to 27 μL of master mix and a two-step qPCR was run on a SmartCycler (Cepheid, Sunnyvale Calif.) as follows: Initial incubation of 40° C. for 10 minutes and 50° C. for 10 minutes and at 95° C. for 5 minutes (to activate Taq), followed by 45 cycles of 5 s denaturation at 95° C. and 20 s annealing/extension at 65° C. Cycle threshold (Ct) values were generated automatically by the SmartCycler software using 2nd derivative analysis of the emerging qPCR curves.
# S. aureus and E. coli cultures were grown to an OD600 of 1.0±0.2 (approximately 1×10^9 cfu/mL.) For each organism, 1 mL of culture was pelleted and washed three times in T.E. Bacterial suspensions were serially diluted in T.E., and 5 μL of each stock were added to bead lysis-reactions containing 50 μL of lysis-reaction buffer. […]
# T1 sequence (P00582 whole entry): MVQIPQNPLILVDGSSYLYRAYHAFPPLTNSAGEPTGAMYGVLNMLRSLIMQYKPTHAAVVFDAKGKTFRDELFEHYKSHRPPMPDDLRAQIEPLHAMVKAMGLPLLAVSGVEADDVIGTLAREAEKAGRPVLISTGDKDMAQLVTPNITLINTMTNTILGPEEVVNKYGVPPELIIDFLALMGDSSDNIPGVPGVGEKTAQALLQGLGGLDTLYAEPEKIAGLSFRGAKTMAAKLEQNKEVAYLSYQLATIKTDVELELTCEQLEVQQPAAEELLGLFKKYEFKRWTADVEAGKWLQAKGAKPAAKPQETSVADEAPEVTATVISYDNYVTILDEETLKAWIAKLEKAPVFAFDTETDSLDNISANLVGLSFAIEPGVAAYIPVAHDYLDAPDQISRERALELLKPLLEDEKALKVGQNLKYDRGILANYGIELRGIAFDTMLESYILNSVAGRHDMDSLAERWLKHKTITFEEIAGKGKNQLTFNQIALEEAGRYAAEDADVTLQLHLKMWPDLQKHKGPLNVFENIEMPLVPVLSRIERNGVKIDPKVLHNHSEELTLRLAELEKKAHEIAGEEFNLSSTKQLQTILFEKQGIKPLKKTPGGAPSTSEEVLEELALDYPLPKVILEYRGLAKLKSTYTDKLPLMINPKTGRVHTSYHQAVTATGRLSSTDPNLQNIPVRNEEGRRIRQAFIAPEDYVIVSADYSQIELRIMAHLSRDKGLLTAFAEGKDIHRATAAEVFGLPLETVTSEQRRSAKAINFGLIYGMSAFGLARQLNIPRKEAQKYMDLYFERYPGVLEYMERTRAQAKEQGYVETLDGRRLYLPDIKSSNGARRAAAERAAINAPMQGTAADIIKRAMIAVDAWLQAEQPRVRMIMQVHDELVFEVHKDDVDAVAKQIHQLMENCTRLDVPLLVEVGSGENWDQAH
compound,measurement,setting,value
"Nc1ccn([C@H]2CC[C@@H](COP(=O)(O)OP(=O)(O)OP(=O)(O)O)O2)c(=O)n1 [ddCTP, dideoxyCTP]",DPE-PCR assay signal (DNA polymerase extension activity),[1],eliminates signal generated by DNA polymerase I
same,DPE-PCR signal derived from E. coli cfu spikes,[2],blocked the generation of signal derived from E. coli cfu spikes
